Assay results as given in PubChem BioAssay (NCI).
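At the GI50, growth is halved. The concentration for full growth arrest is given as TGI.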

Experiments:
Assay in all cases: inhibition of tumour cell growth, NCI panel, 384-well format
OVCAR-8 ovarian = test system: OVCAR-8 ovarian
HOP-92 NSCLC = test system: HOP-92 NSCLC
SN12C renal = test system: SN12C renal
MCF7 breast = test system: MCF7 breast
NCI-H322M lung = test system: NCI-H322M lung
PC-3 prostate = test system: PC-3 prostate
DU-145 prostate = test system: DU-145 prostate
UACC-62 melanoma = test system: UACC-62 melanoma
HL-60(TB) leukemia = test system: HL-60(TB) leukemia
IGROV1 ovarian = test system: IGROV1 ovarian
MALME-3M melanoma = test system: MALME-3M melanoma
CCRF-CEM leukemia = test system: CCRF-CEM leukemia
TK-10 renal = test system: TK-10 renal
A498 renal = test system: A498 renal
UO-31 renal = test system: UO-31 renal
SF-268 CNS = test system: SF-268 CNS
RPMI-8226 leukemia = test system: RPMI-8226 leukemia
LOX IMVI melanoma = test system: LOX IMVI melanoma
786-0 renal = test system: 786-0 renal
MOLT-4 leukemia = test system: MOLT-4 leukemia
SW-620 colon = test system: SW-620 colon
SF-539 CNS = test system: SF-539 CNS
MDA-MB-435 melanoma = test system: MDA-MB-435 melanoma
SNB-19 CNS = test system: SNB-19 CNS
SF-295 CNS = test system: SF-295 CNS
EKVX NSCLC = test system: EKVX NSCLC
A549 NSCLC = test system: A549 NSCLC
CAKI-1 renal = test system: CAKI-1 renal
UACC-257 melanoma = test system: UACC-257 melanoma
SK-MEL-28 melanoma = test system: SK-MEL-28 melanoma
COLO 205 colon = test system: COLO 205 colon
OVCAR-4 ovarian = test system: OVCAR-4 ovarian
BT-549 breast = test system: BT-549 breast
HCT-116 colon = test system: HCT-116 colon
NCI-H522 lung = test system: NCI-H522 lung
OVCAR-5 ovarian = test system: OVCAR-5 ovarian
RXF 393 renal = test system: RXF 393 renal
HOP-62 NSCLC = test system: HOP-62 NSCLC
ACHN renal = test system: ACHN renal
HCC-2998 colon = test system: HCC-2998 colon
NCI/ADR-RES ovarian = test system: NCI/ADR-RES ovarian
SNB-75 CNS = test system: SNB-75 CNS
HCT-15 colon = test system: HCT-15 colon
SR leukemia = test system: SR leukemia
NCI-H23 lung = test system: NCI-H23 lung
OVCAR-3 ovarian = test system: OVCAR-3 ovarian
U251 glioblastoma = test system: U251 glioblastoma
SK-MEL-5 melanoma = test system: SK-MEL-5 melanoma
K-562 leukemia = test system: K-562 leukemia
MDA-MB-231 breast = test system: MDA-MB-231 breast
SK-OV-3 ovarian = test system: SK-OV-3 ovarian
NCI-H226 lung = test system: NCI-H226 lung
NCI-H460 NSCLC = test system: NCI-H460 NSCLC
MDA-MB-468 breast = test system: MDA-MB-468 breast
HT29 colon = test system: HT29 colon
KM12 colon = test system: KM12 colon
SK-MEL-2 melanoma = test system: SK-MEL-2 melanoma
T-47D breast = test system: T-47D breast
M14 melanoma = test system: M14 melanoma

With COc1ccc(Cl)c(Nc2nc3ccccc3nc2NS(=O)(=O)c2cccc(NC(=O)C(C)(C)N)c2)c1 the GI50 (OVCAR-8 ovarian) was 12.2 µM, the TGI (OVCAR-8 ovarian) was 24.9 µM and the GI50 (HOP-92 NSCLC) was 0.977 µM. For the same compound, the TGI (HOP-92 NSCLC) was 5.87 µM, the GI50 (SN12C renal) was 8.86 µM and the TGI (SN12C renal) was 21.3 µM. The GI50 (MCF7 breast) was 2.76 µM, the TGI (MCF7 breast) was 14.5 µM and the GI50 (NCI-H322M lung) was 10.2 µM. It also gave a TGI (NCI-H322M lung) of 23.4 µM, a GI50 (PC-3 prostate) of 4.02 µM and a TGI (PC-3 prostate) of 16.3 µM. It also gave a GI50 (DU-145 prostate) of 11.4 µM, a TGI (DU-145 prostate) of 24.4 µM and a GI50 (UACC-62 melanoma) of 6.72 µM. For the same compound, the TGI (UACC-62 melanoma) was 19.6 µM, the GI50 (HL-60(TB) leukemia) was 2.69 µM and the TGI (HL-60(TB) leukemia) was 10.7 µM. It also gave a GI50 (IGROV1 ovarian) of 1.38 µM, a TGI (IGROV1 ovarian) of 3.79 µM and a GI50 (MALME-3M melanoma) of 9.58 µM. It also gave a TGI (MALME-3M melanoma) of 21.6 µM, a GI50 (CCRF-CEM leukemia) of 12 µM and a TGI (CCRF-CEM leukemia) of 24.4 µM. It also gave a GI50 (TK-10 renal) of 5.77 µM, a TGI (TK-10 renal) of 19.5 µM and a GI50 (A498 renal) of 6.64 µM. For the same compound, the TGI (A498 renal) was 19.5 µM, the GI50 (UO-31 renal) was 2.73 µM and the TGI (UO-31 renal) was 13.3 µM. It also gave a GI50 (SF-268 CNS) of 10.9 µM, a TGI (SF-268 CNS) of 22.9 µM and a GI50 (RPMI-8226 leukemia) of 3.2 µM. For the same compound, the TGI (RPMI-8226 leukemia) was 11.4 µM, the GI50 (LOX IMVI melanoma) was 12.8 µM and the TGI (LOX IMVI melanoma) was 25.4 µM. The GI50 ([…]-0 renal) was 9.77 µM, the TGI (786-0 renal) was 22.6 µM and the GI50 (MOLT-4 leukemia) was 2.37 µM. For the same compound, the TGI (MOLT-4 leukemia) was 7.66 µM, the GI50 (SW-620 colon) was 10.2 µM and the TGI (SW-620 colon) was 22.9 µM. For the same compound, the GI50 (SF-539 CNS) was 8.54 µM, the TGI (SF-539 CNS) was 21.1 µM and the GI50 (MDA-MB-435 melanoma) was 12.5 µM. For the same compound, the TGI (MDA-MB-435 melanoma) was 25.1 µM, the GI50 (SNB-19 CNS) was 12.2 µM and the TGI (SNB-19 CNS) was 24.8 µM. It also gave a GI50 (SF-295 CNS) of 5.29 µM, a TGI (SF-295 CNS) of 17.9 µM and a GI50 (EKVX NSCLC) of 4.81 µM. The TGI (EKVX NSCLC) was 19.5 µM, the GI50 (A549 NSCLC) was 10.5 µM and the TGI (A549 NSCLC) was 22.4 µM. For the same compound, the GI50 (CAKI-1 renal) was 7.59 µM, the TGI (CAKI-1 renal) was 21.7 µM and the GI50 (UACC-257 melanoma) was 11.6 µM. For the same compound, the TGI (UACC-257 melanoma) was 24.2 µM, the GI50 (SK-MEL-28 melanoma) was 3.91 µM and the TGI (SK-MEL-28 melanoma) was 16.7 µM. For the same compound, the GI50 (COLO 205 colon) was 11.3 µM, the TGI (COLO 205 colon) was 23.5 µM and the GI50 (OVCAR-4 ovarian) was 10.2 µM. It also gave a TGI (OVCAR-4 ovarian) of 24.4 µM, a GI50 (BT-549 breast) of 3.17 µM and a TGI (BT-549 breast) of 14.1 µM. The GI50 (HCT-116 colon) was 14.7 µM, the TGI (HCT-116 colon) was 28 µM and the GI50 (NCI-H522 lung) was 9.12 µM. For the same compound, the TGI (NCI-H522 lung) was 21.6 µM, the GI50 (OVCAR-5 ovarian) was 9.79 µM and the TGI (OVCAR-5 ovarian) was 22.3 µM. It also gave a GI50 (RXF 393 renal) of 2.38 µM, a TGI (RXF 393 renal) of 8.35 µM and a GI50 (HOP-62 NSCLC) of 13.6 µM. It also gave a TGI (HOP-62 NSCLC) of 26.6 µM, a GI50 (ACHN renal) of 10.2 µM and a TGI (ACHN renal) of 23.3 µM. For the same compound, the GI50 (HCC-2998 colon) was 8.3 µM, the TGI (HCC-2998 colon) was 22.6 µM and the GI50 (NCI/ADR-RES ovarian) was 11 µM. It also gave a TGI (NCI/ADR-RES ovarian) of 23.2 µM, a GI50 (SNB-75 CNS) of 2.43 µM and a TGI (SNB-75 CNS) of 10.1 µM. For the same compound, the GI50 (HCT-15 colon) was 12.3 µM, the TGI (HCT-15 colon) was 25 µM and the GI50 (SR leukemia) was 8.2 µM. The TGI (SR leukemia) was 21.6 µM, the GI50 (NCI-H23 lung) was 4.73 µM and the TGI (NCI-H23 lung) was 20.1 µM. The GI50 (OVCAR-3 ovarian) was 3.11 µM, the TGI (OVCAR-3 ovarian) was 15.5 µM and the GI50 (U251 glioblastoma) was 11.8 µM. It also gave a TGI (U251 glioblastoma) of 24.3 µM, a GI50 (SK-MEL-5 melanoma) of 12.8 µM and a TGI (SK-MEL-5 melanoma) of 25.5 µM. For the same compound, the GI50 (K-562 leukemia) was 13.6 µM, the TGI (K-562 leukemia) was 26.6 µM and the GI50 (MDA-MB-231 breast) was 14.3 µM. It also gave a TGI (MDA-MB-231 breast) of 27.5 µM, a GI50 (SK-OV-3 ovarian) of 5.4 µM and a TGI (SK-OV-3 ovarian) of 19.3 µM. For the same compound, the GI50 (NCI-H226 lung) was 10.9 µM, the TGI (NCI-H226 lung) was 22.9 µM and the GI50 (NCI-H460 NSCLC) was 5.5 µM. For the same compound, the TGI (NCI-H460 NSCLC) was 18.5 µM, the GI50 (MDA-MB-468 breast) was 1.84 µM and the TGI (MDA-MB-468 breast) was 10.1 µM. It also gave a GI50 (HT29 colon) of 10.2 µM, a TGI (HT29 colon) of 21.9 µM and a GI50 (KM12 colon) of 13.7 µM. For the same compound, the TGI (KM12 colon) was 26.7 µM, the GI50 (SK-MEL-2 melanoma) was 11.7 µM and the TGI (SK-MEL-2 melanoma) was 24.6 µM. For the same compound, the GI50 (T-47D breast) was 1.57 µM, the TGI (T-47D breast) was 7.84 µM and the GI50 (M14 melanoma) was 12.5 µM. The TGI (M14 melanoma) was 25.1 µM.
